Source: ChEMBL document CHEMBL1123451, “Enol lactone inhibitors of serine proteases. The effect of regiochemistry on the inactivation behavior of phenyl-substituted (halomethylene)tetra- and -dihydrofuranones and (halomethylene)tetrahydropyranones toward alpha-chymotrypsin: stable acyl enzyme intermediate” (J Med Chem, 1986)

Key:
[1] = Catalytic rate constant of the compound; assay type: ADME
Chymotrypsinogen B [2] = target: T1, Chymotrypsinogen B (Homo sapiens, UniProt P17538); experiment: Binding constant alpha-chymotrypsin was determined by competitive inhibition assay with Suc-Ala-Ala-Pro-Phe-pNA as substrate
[3] = Hydrolysis rate constant of the compound; assay type: ADME
Chymotrypsinogen B [4] = target: T1, Chymotrypsinogen B; experiment: Binding constant alpha-chymotrypsin was determined by competitive inhibition assay with BTEE as substrate

T1 sequence (P17538 34-164 limits assumed, other chains not shown): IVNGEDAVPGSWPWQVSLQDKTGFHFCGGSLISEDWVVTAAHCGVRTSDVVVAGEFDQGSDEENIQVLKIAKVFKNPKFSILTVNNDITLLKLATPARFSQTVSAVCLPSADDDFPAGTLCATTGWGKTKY
T1 sequence (P17538 167-263 limits assumed, other chains not shown): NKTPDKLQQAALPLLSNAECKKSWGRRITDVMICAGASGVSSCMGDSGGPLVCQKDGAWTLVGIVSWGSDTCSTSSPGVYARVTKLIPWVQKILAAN

| SMILES | Kc [1] | Ki (Chymotrypsinogen B [2]) | Kh [3] | Ki (Chymotrypsinogen B [4]) |
| --- | --- | --- | --- | --- |
| O=C1CC(c2ccccc2)C/C(=C\I)O1 (stereo not drawn) | 0.025 min⁻¹ | 0.0053 µM | 0.0068 min⁻¹ |  |
| C=C1CC(c2ccccc2)CC(=O)O1 (stereo not drawn) |  |  | 0.0015 min⁻¹ |  |
| O=C1C=C(c2ccccc2)/C(=C\I)O1 |  |  | 0.0015 min⁻¹ |  |

Continued, values first:

| Kc [1] | Ki (Chymotrypsinogen B [2]) | Kh [3] | Ki (Chymotrypsinogen B [4]) | SMILES |
| --- | --- | --- | --- | --- |
|  |  | 0.004 min⁻¹ | 55 µM | O=C1CCC(c2ccccc2)/C(=C\I)O1 (stereo not drawn) |
|  |  | 0.0021 min⁻¹ |  | O=C1CC(c2ccccc2)/C(=C\I)O1 (stereo not drawn) |
